Assay results reported in US20160175318A1, “COMPOSITIONS COMPRISING ANTIBACTERIAL AGENT AND TAZOBACTAM” (WOCKHARDT LIMITED, priority 2013, published 2016).
Like-named read-outs stand apart in the source and are kept apart here. Each block holds one compound with its values, some of them ahead of it.

How the values were obtained:
Format in all cases: cell-based
E. coli B-89 [1] = experiment: MIC by agar dilution (CLSI) against highly resistant ESBL strain; conditions: E. coli B-89
Procedure: (§1) The results on activity of cefepime and other cephalosporin antibacterial agents in combination with tazobactam against highly resistant ESBL strains are given Table 1. In a typical study, overnight grown bacterial cultures were diluted appropriately and inoculated on the agar media containing doubling dilutions of the antibiotic. Observation for growth or no growth was performed after 16-20 h of incubation at 35±2° C. in ambient air. The overall procedure was performed as per Clinical and Laboratory Standards Institute (CLSI) recommendations. This experimental was followed for Examples 2-4 and 6 below (Table 2-4 and 7).

E. coli M50 [2] = experiment: as above
Procedure: as §1

E. coli 7MP [3] = experiment: as above; conditions: E. coli 7MP
Procedure: as §1

E. cloacae M-20 = experiment: as above; conditions: E. cloacae M-20
Procedure: as §1

K. pneumoniae M150 = experiment: as above; conditions: Klebsiella pneumoniae, M150, K. pneumoniae M150, read-out: MIC
Procedure: as §1

E. coli B-89 [4] = experiment: Quantitative drug diffusion assay (disc, zone of inhibition, CLSI); design: key to Interpretation of zone as per CLSI recommendations: R: Resistant; I: Intermediate; S: Sensitive (Interpretation as per CLSI recommendations, 2010)
Source text: (§2) Activity of cefepime in combination with tazobactam and various penicillins in combination with respective ESBL inhibitors was also investigated against highly resistant ESBL strains in quantitative drug diffusion assay performed as per CLSI recommendations (Clinical and Laboratory Standards Institute (CLSI), performance Standards for Antimicrobial Susceptibility Testing, 20th Informational Supplement, M 100-S20, Volume 30, No. 1, 2010).
(§3) In a typical study, overnight grown bacterial cultures after appropriate dilution were seed inoculated in the molten, cooled agar media and plates poured. Antibiotics containing 6 mm diameter discs were place on the top of the agar surface. Zone of inhibition based observation was performed after 16-18 h of incubation at 35±2° C. in ambient air. The overall procedure was performed as per CLSI recommendations (Table 5 and 6). These assays are routinely used in determining possibility of treating a particular infection using antibiotic and/or their combinations. For example, in case of treating an infection caused by E. coli (M138) using Augmentin® [commercially available combination: Amoxicillin (500 mg)+Clavulanic acid (125 mg)], the zone inhibition values need to be in the sensitive (S) range.

E. coli M50 [5] = experiment: as above; design: key to Interpretation of zone as per CLSI recommendations: R: Resistant; I: Intermediate; S: Sensitive (Interpretation as per CLSI recommendations, 2010)
Source text: as §2, §3

E. coli 7MP [6] = experiment: as above; design: key to Interpretation of zone as per CLSI recommendations: R: Resistant; I: Intermediate; S: Sensitive (Interpretation as per CLSI recommendations, 2010)
Source text: as §2, §3

E. coli B-123 = experiment: as above; design: key to Interpretation of zone as per CLSI recommendations: R: Resistant; I: Intermediate; S: Sensitive (Interpretation as per CLSI recommendations, 2010)
Source text: as §2, §3

E. coli S-112 = experiment: as above; design: key to Interpretation of zone as per CLSI recommendations: R: Resistant; I: Intermediate; S: Sensitive (Interpretation as per CLSI recommendations, 2010)
Source text: as §2, §3

E. coli M-138 = experiment: as above; design: key to Interpretation of zone as per CLSI recommendations: R: Resistant; I: Intermediate; S: Sensitive (Interpretation as per CLSI recommendations, 2010)
Source text: as §2, §3

[7] = Escherichia coli, B89, 20 h, Tazobactam 0 mcg (antibiotic alone), read-out: MIC
[8] = Escherichia coli, 20 h, Tazobactam 0 mcg (antibiotic alone), read-out: MIC
[9] = Escherichia coli, 7MP, 20 h, Tazobactam 0 mcg (antibiotic alone), read-out: MIC
[10] = Enterobacter cloacae, M20, 20 h, Tazobactam 0 mcg (antibiotic alone), read-out: MIC
[11] = Tazobactam 0 mcg (antibiotic alone)
[12] = ESBL inhibitor 0 mcg (antibiotic alone)
[13] = Table 5, with Tazobactam 10 mcg
[14] = Table 6, with Tazobactam 10 mcg
[15] = Table 5, with Clavulanic acid 10 mcg
[16] = Table 6, with Clavulanic acid 10 mcg

MIC (E. coli B-89 [1]; with Tazobactam 4 mcg): >64 µg/mL
MIC (E. coli B-89 [1]; with Tazobactam 8 mcg): >64 µg/mL
MIC (E. coli B-89 [1]; [7]): > 128 µg/mL
MIC (E. coli M50 [2]; [8]): > 128 µg/mL
MIC (E. coli M50 [2]; with Tazobactam 4 mcg): >64 µg/mL
MIC (E. coli M50 [2]; with Tazobactam 8 mcg): >64 µg/mL
MIC (E. coli 7MP [3]; with Tazobactam 4 mcg): >64 µg/mL
MIC (E. coli 7MP [3]; with Tazobactam 8 mcg): >64 µg/mL
MIC (E. coli 7MP [3]; [9]): > 128 µg/mL
MIC (E. cloacae M-20; with Tazobactam 4 mcg): >64 µg/mL
MIC (E. cloacae M-20; with Tazobactam 8 mcg): >64 µg/mL
MIC (E. cloacae M-20; [10]): > 128 µg/mL
MIC (K. pneumoniae M150; [11]): > 128 µg/mL
MIC (K. pneumoniae M150; with Tazobactam 4 mcg): > 64 µg/mL
MIC (K. pneumoniae M150; with Tazobactam 8 mcg): > 64 µg/mL
SMILES: CCN1CCN(C(=O)N[C@@H](C(=O)N[C@@H]2C(=O)N3[C@@H]2SC(C)(C)[C@@H]3C(=O)O)c2ccccc2)C(=O)C1=O [Piperacillin]
Zone of Inhibition (E. coli B-89 [4]; [12]): Nil
Interpretation of zone as per CLSI recommendations (E. coli B-89 [4]; Table 5, ESBL inhibitor 0 mcg): (R)
Interpretation of zone as per CLSI recommendations (E. coli B-89 [4]; [13]): (R)
Interpretation of zone as per CLSI recommendations (E. coli B-89 [4]; Table 6, ESBL inhibitor 0 mcg): (R)
Interpretation of zone as per CLSI recommendations (E. coli B-89 [4]; [14]): (R)
Zone of Inhibition (E. coli B-89 [4]; with Tazobactam 10 mcg): 15 mm
Zone of Inhibition (E. coli M50 [5]; [12]): Nil
Interpretation of zone as per CLSI recommendations (E. coli M50 [5]; Table 5, ESBL inhibitor 0 mcg): (R)
Interpretation of zone as per CLSI recommendations (E. coli M50 [5]; [13]): (R)
Interpretation of zone as per CLSI recommendations (E. coli M50 [5]; Table 6, ESBL inhibitor 0 mcg): (R)
Interpretation of zone as per CLSI recommendations (E. coli M50 [5]; [14]): (R)
Zone of Inhibition (E. coli M50 [5]; with Tazobactam 10 mcg): 17 mm
Zone of Inhibition (E. coli 7MP [6]; [12]): Nil
Interpretation of zone as per CLSI recommendations (E. coli 7MP [6]; Table 5, ESBL inhibitor 0 mcg): (R)
Interpretation of zone as per CLSI recommendations (E. coli 7MP [6]; [13]): (R)
Interpretation of zone as per CLSI recommendations (E. coli 7MP [6]; Table 6, ESBL inhibitor 0 mcg): (R)
Interpretation of zone as per CLSI recommendations (E. coli 7MP [6]; [14]): (R)
Zone of Inhibition (E. coli 7MP [6]; with Tazobactam 10 mcg): 13.5 mm
Zone of Inhibition (E. coli B-123; [12]): Nil
Interpretation of zone as per CLSI recommendations (E. coli B-123; Table 5, ESBL inhibitor 0 mcg): (R)
Interpretation of zone as per CLSI recommendations (E. coli B-123; [13]): (R)
Interpretation of zone as per CLSI recommendations (E. coli B-123; Table 6, ESBL inhibitor 0 mcg): (R)
Interpretation of zone as per CLSI recommendations (E. coli B-123; [14]): (R)
Zone of Inhibition (E. coli B-123; with Tazobactam 10 mcg): 13.5 mm
Zone of Inhibition (E. coli S-112; [12]): Nil
Interpretation of zone as per CLSI recommendations (E. coli S-112; Table 5, ESBL inhibitor 0 mcg): (R)
Interpretation of zone as per CLSI recommendations (E. coli S-112; [13]): (R)
Interpretation of zone as per CLSI recommendations (E. coli S-112; Table 6, ESBL inhibitor 0 mcg): (R)
Interpretation of zone as per CLSI recommendations (E. coli S-112; [14]): (R)
Zone of Inhibition (E. coli S-112; with Tazobactam 10 mcg): 14 mm
Zone of Inhibition (E. coli M-138; [12]): Nil
Interpretation of zone as per CLSI recommendations (E. coli M-138; Table 5, ESBL inhibitor 0 mcg): (R)
Interpretation of zone as per CLSI recommendations (E. coli M-138; [13]): (R)
Interpretation of zone as per CLSI recommendations (E. coli M-138; Table 6, ESBL inhibitor 0 mcg): (R)
Interpretation of zone as per CLSI recommendations (E. coli M-138; [14]): (R)
Zone of Inhibition (E. coli M-138; with Tazobactam 10 mcg): 15.5 mm

MIC (E. coli B-89 [1]; with Tazobactam 4 mcg): >64 µg/mL
MIC (E. coli B-89 [1]; with Tazobactam 8 mcg): >64 µg/mL
MIC (E. coli B-89 [1]; [7]): > 128 µg/mL
MIC (E. coli M50 [2]; [8]): > 128 µg/mL
MIC (E. coli M50 [2]; with Tazobactam 4 mcg): >64 µg/mL
MIC (E. coli M50 [2]; with Tazobactam 8 mcg): >64 µg/mL
MIC (E. coli 7MP [3]; with Tazobactam 4 mcg): >64 µg/mL
MIC (E. coli 7MP [3]; with Tazobactam 8 mcg): >64 µg/mL
MIC (E. coli 7MP [3]; [9]): > 128 µg/mL
MIC (E. cloacae M-20; with Tazobactam 4 mcg): >64 µg/mL
MIC (E. cloacae M-20; with Tazobactam 8 mcg): >64 µg/mL
MIC (E. cloacae M-20; [10]): > 128 µg/mL
MIC (K. pneumoniae M150; [11]): > 128 µg/mL
MIC (K. pneumoniae M150; with Tazobactam 4 mcg): > 64 µg/mL
MIC (K. pneumoniae M150; with Tazobactam 8 mcg): > 64 µg/mL
SMILES: CC1(C)S[C@@H]2[C@H](NC(=O)[C@H](C(=O)O)c3ccsc3)C(=O)N2[C@H]1C(=O)O [Ticarcillin]
Zone of Inhibition (E. coli B-89 [4]; [12]): Nil
Interpretation of zone as per CLSI recommendations (E. coli B-89 [4]; Table 5, ESBL inhibitor 0 mcg): (R)
Interpretation of zone as per CLSI recommendations (E. coli B-89 [4]; [15]): (R)
Interpretation of zone as per CLSI recommendations (E. coli B-89 [4]; Table 6, ESBL inhibitor 0 mcg): (R)
Interpretation of zone as per CLSI recommendations (E. coli B-89 [4]; [16]): (R)
Zone of Inhibition (E. coli B-89 [4]; with Clavulanic acid 10 mcg): 10 mm
Zone of Inhibition (E. coli M50 [5]; [12]): 9 mm
Interpretation of zone as per CLSI recommendations (E. coli M50 [5]; Table 5, ESBL inhibitor 0 mcg): (R)
Interpretation of zone as per CLSI recommendations (E. coli M50 [5]; [15]): (R)
Interpretation of zone as per CLSI recommendations (E. coli M50 [5]; Table 6, ESBL inhibitor 0 mcg): (R)
Interpretation of zone as per CLSI recommendations (E. coli M50 [5]; [16]): (R)
Zone of Inhibition (E. coli M50 [5]; with Clavulanic acid 10 mcg): 11.5 mm
Zone of Inhibition (E. coli 7MP [6]; [12]): Nil
Interpretation of zone as per CLSI recommendations (E. coli 7MP [6]; Table 5, ESBL inhibitor 0 mcg): (R)
Interpretation of zone as per CLSI recommendations (E. coli 7MP [6]; [15]): (R)
Interpretation of zone as per CLSI recommendations (E. coli 7MP [6]; Table 6, ESBL inhibitor 0 mcg): (R)
Interpretation of zone as per CLSI recommendations (E. coli 7MP [6]; [16]): (R)
Zone of Inhibition (E. coli 7MP [6]; with Clavulanic acid 10 mcg): Nil
Zone of Inhibition (E. coli B-123; [12]): Nil
Interpretation of zone as per CLSI recommendations (E. coli B-123; Table 5, ESBL inhibitor 0 mcg): (R)
Interpretation of zone as per CLSI recommendations (E. coli B-123; [15]): (R)
Interpretation of zone as per CLSI recommendations (E. coli B-123; Table 6, ESBL inhibitor 0 mcg): (R)
Interpretation of zone as per CLSI recommendations (E. coli B-123; [16]): (R)
Zone of Inhibition (E. coli B-123; with Clavulanic acid 10 mcg): 13.5 mm
Zone of Inhibition (E. coli S-112; [12]): Nil
Interpretation of zone as per CLSI recommendations (E. coli S-112; Table 5, ESBL inhibitor 0 mcg): (R)
Interpretation of zone as per CLSI recommendations (E. coli S-112; [15]): (R)
Interpretation of zone as per CLSI recommendations (E. coli S-112; Table 6, ESBL inhibitor 0 mcg): (R)
Interpretation of zone as per CLSI recommendations (E. coli S-112; [16]): (R)
Zone of Inhibition (E. coli S-112; with Clavulanic acid 10 mcg): 10 mm
Zone of Inhibition (E. coli M-138; [12]): Nil
Interpretation of zone as per CLSI recommendations (E. coli M-138; Table 5, ESBL inhibitor 0 mcg): (R)
Interpretation of zone as per CLSI recommendations (E. coli M-138; [15]): (R)
Interpretation of zone as per CLSI recommendations (E. coli M-138; Table 6, ESBL inhibitor 0 mcg): (R)
Interpretation of zone as per CLSI recommendations (E. coli M-138; [16]): (R)
Zone of Inhibition (E. coli M-138; with Clavulanic acid 10 mcg): 10 mm
